# Laboratory results from PMC10065799, “High-throughput profiling of sequence recognition by tyrosine kinases and SH2 domains using bacterial peptide display” (eLife, 2023).
# Experiments:
# c-Src kinase domain = c-Src kinase domain (Homo sapiens, UniProt P12931); test: pTyr-Var library bacterial peptide display kinase screen (enrichment scores); format: biochemical
# Fyn kinase domain = test: as above; format: biochemical, human
# EPHB2 kinase domain = test: as above; format: biochemical, human
# c-Src SH2 domain = c-Src SH2 domain (Homo sapiens, UniProt P12931); test: pTyr-Var library SH2 domain screen with SH2-dynabeads (enrichment scores)
# Hck kinase domain = test: pTyr-Var library bacterial peptide display kinase screen (enrichment scores); format: biochemical, human
# Fer kinase domain = test: as above; format: biochemical, mouse
# Fes = test: as above; format: biochemical; conditions: mean of log2 of enrichment over R1-R6
# [1] = system: 4G10 Platinum pan-phosphotyrosine antibody; test: Phosphorylated pTyr-Var library selection with biotinylated pan-phosphotyrosine antibody; format: binding, mouse; conditions: enrichment score, sheet SH2-vs-peptide
# Procedure: After the desired time of library phosphorylation, kinase activity was quenched with 25 mM EDTA and the cells were washed with PBS containing 0.2% BSA. Kinase-treated cells were then labeled with a 1:1000 dilution of biotinylated 4G10 Platinum anti-phosphotyrosine antibody (Millipore) for an hour on ice and washed with PBS containing 0.1% BSA and 2 mM EDTA (isolation buffer). The cells were finally resuspended in PBS containing 0.1% BSA. The phosphorylated, antibody-labeled cells were then mixed with magnetic beads from Dynabeads FlowComp Flexi kit (Invitrogen), at a ratio of 37.5 μL of washed beads per 50 μL of cell suspension, diluted into 450 μL of isolation buffer. The suspension was rotated at 4 °C for 30 minutes, then 375 μL of isolation buffer was added and the beads were separated from the bulk solution on a magnetic rack. The beads were washed once with 1 mL of isolation buffer, and then the supertantant were removed by aspiration. […] The bead/lysate mixture was centrifuged to pellet the beads and the mixture was stored at -20 °C.
# Grb2 SH2 domain = test: pTyr-Var library SH2 domain screen with SH2-dynabeads (enrichment scores)
# AncSZ kinase domain = test: pTyr-Var library bacterial peptide display kinase screen (enrichment scores); format: biochemical
# c-Abl kinase domain = target: T1, c-Abl kinase domain (Mus musculus, UniProt P00520); test: as above; format: biochemical
# T1 sequence (P00520 242-493 limits assumed): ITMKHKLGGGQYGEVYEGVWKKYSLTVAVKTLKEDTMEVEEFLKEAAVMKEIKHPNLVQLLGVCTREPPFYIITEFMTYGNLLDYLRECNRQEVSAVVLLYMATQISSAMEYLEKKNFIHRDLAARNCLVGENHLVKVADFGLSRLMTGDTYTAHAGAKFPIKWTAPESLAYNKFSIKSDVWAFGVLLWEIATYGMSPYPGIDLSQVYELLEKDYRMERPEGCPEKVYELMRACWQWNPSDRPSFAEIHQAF
# FGFR1 kinase domain = test: as above; format: biochemical, human
# EPHB1 kinase domain = test: as above; format: biochemical, human
# MERTK kinase domain = test: as above; format: biochemical, human
# FGFR3 kinase domain = test: as above; format: biochemical, human
# Jak2 = test: as above; format: biochemical, human
# SHP2 C-SH2 domain = test: pTyr-Var library SH2 domain screen with SH2-dynabeads (enrichment scores)
# [2] = mean of log2 of enrichment over R1-R4
# [3] = pTyr-Var library, enrichment score, replicate 1
# [4] = pTyr-Var library, enrichment score, replicate 3
# [5] = pTyr-Var library, enrichment score, replicate 4
# [6] = mean of log2 enrichment of reference peptide, n = 4
# [7] = pTyr-Var library, reference peptide enrichment, mean of n = 4
# [8] = mean of log2 enrichment of reference peptide, n = 5
# [9] = pTyr-Var library, reference peptide enrichment, mean of n = 5
sequence,measurement,setting,value
ATVLNYLPKCI [A2M_Y817],c-Src mean of log2(enrichment),c-Src kinase domain; [2],-1.394
same,c-Src enrich. R1,c-Src kinase domain; [3],0.4801
same,c-Src enrich. R3,c-Src kinase domain; [4],0.3246
same,c-Src enrich. R4,c-Src kinase domain; [5],0.3798
same,Fyn mean of log2(enrichment),Fyn kinase domain; [2],-1.219
same,Fyn enrich. R1,Fyn kinase domain; [3],0.5501
same,Fyn enrich. R3,Fyn kinase domain; [4],0.3301
same,Fyn enrich. R4,Fyn kinase domain; [5],0.4584
same,mean of log2(reference),EPHB2 kinase domain; [6],-0.8971
same,ref. mean,EPHB2 kinase domain; [7],0.5418
same,c-Src (mean),"c-Src SH2 domain; enrichment score, phosphorylated pTyr-Var library, sheet SH2-vs-peptide, mean",0.535
same,mean of log2(reference),"c-Src SH2 domain; mean of log2 enrichment of reference peptide, R1-R3, sheet c-Src",-0.9781
same,ref. mean,"c-Src SH2 domain; reference peptide, mean of R1-R3, sheet c-Src",0.535
same,Hck mean of log2(enrichment),"Hck kinase domain; mean of log2(variant) / mean of log2(reference), R1-R4",0.599
same,Hck enrich. R1,Hck kinase domain; [3],0.4967
same,Hck enrich. R3,Hck kinase domain; [4],0.9831
same,Hck enrich. R4,Hck kinase domain; [5],0.3063
same,Fer mean of log2(enrichment),Fer kinase domain; [2],-1.275
same,Fer enrich. R1,Fer kinase domain; [3],0.6179
same,Fer enrich. R3,Fer kinase domain; [4],0.5252
same,Fer enrich. R4,Fer kinase domain; [5],0.2478
same,Fes mean of log2(enrichment),Fes,-0.04028
same,4G10 (mean),[1],0.6373
same,mean of log2(reference),"Grb2 SH2 domain; Grb2 SH2, mean of log2 enrichment of reference, R1-R3",-0.1568
same,ref. mean,"Grb2 SH2 domain; reference peptide enrichment score, Grb2 SH2, mean of R1-R3",0.8993
same,AncSZ mean of log2(enrichment),AncSZ kinase domain; mean of log2 of enrichment over R1-R5,-0.4662
same,AncSZ enrich. R1,AncSZ kinase domain; [3],0.5771
same,AncSZ enrich. R3,AncSZ kinase domain; [4],0.5974
same,AncSZ enrich. R4,AncSZ kinase domain; [5],1.037
same,AncSZ enrich. R5,"AncSZ kinase domain; pTyr-Var library, enrichment score, replicate 5",0.9242
same,c-Abl mean of log2(enrichment),c-Abl kinase domain; [2],-0.5355
same,c-Abl enrich. R1,c-Abl kinase domain; [3],0.4542
same,c-Abl enrich. R3,c-Abl kinase domain; [4],0.6528
same,c-Abl enrich. R4,c-Abl kinase domain; [5],0.8371
same,mean of log2(reference),FGFR1 kinase domain; [8],-0.9981
same,ref. mean,FGFR1 kinase domain; [9],0.5192
same,mean of log2(reference),EPHB1 kinase domain; [6],-0.6057
same,ref. mean,EPHB1 kinase domain; [7],0.6623
same,mean of log2(reference),MERTK kinase domain; [6],-1.427
same,ref. mean,MERTK kinase domain; [7],0.3924
same,mean of log2(reference),FGFR3 kinase domain; [8],-0.6609
same,ref. mean,FGFR3 kinase domain; [9],0.649
same,Jak2 mean of log2(enrichment),Jak2; mean of log2 of enrichment over R1-R3,-0.2312
same,Jak2 enrich. R1,Jak2; [3],0.7671
same,Jak2 enrich. R3,Jak2; [4],0.8013
same,mean of log2(reference),"SHP2 C-SH2 domain; SHP2-C SH2, mean of log2 enrichment of reference, R1-R3",-0.4562
same,ref. mean,"SHP2 C-SH2 domain; reference peptide enrichment score, SHP2-C SH2, mean of R1-R3",0.736
